Values of other authors in patent publication US20110294879A1, “METHOD OF TREATMENT OF FRAGILE X SYNDROME, DOWN'S SYNDROME, AUTISM AND RELATED DISORDERS” (XENOPORT, INC., priority 2010, published 2011).

Key:
[1] = test system: subjects with FXS and comorbid autistic disorder
Fmr KO mice = settings: Bear et al patents
[2] = humans

## CC(=O)NCCCS(=O)(=O)O [CAMPRAL, acamprosate calcium]
[1]; fragile X subjects treated in the study
  adverse GI events: observed in the majority of fragile X subjects
[1]; subjects with FXS and comorbid autistic disorder, Erickson et al 2010
  Clinical Global Impression (CGI-I): significant symptomatic improvements

## Cc1cccc(C#Cc2ccccc2)n1 [MPEP, 2-methyl-6-(phenylethynyl)-pyridine]
Fmr KO mice
  behavioral and developmental phenotypes: reverse behavioral and developmental phenotypes

## CC(=O)NCCCS(=O)(=O)O [acamprosate, 3-(Acetylamino)propylsulfonic acid]
[2]
  oral bioavailability: about 11%

## Cc1nc2n(c(=O)c1CCN1CCC(c3noc4cc(F)ccc34)CC1)CCCC2 [risperidone]
Autistic children
  social isolation and communication: not improved
Autistic children; McCracken et al 2002
  irritability subscale of the Aberrant Behavior Checklist and Clinical Global Impressions-Improvement: significant improvement
